Experiment [1] relates to DB02473. As to the kind of experiment: Antibiotic MIC tests. In kind it is cell-based.
The test system of experiment [2] is DB10033. As to the kind of experiment: Antibiotic MIC tests. In kind it is cell-based, Bacillus altitudinis. The settings on record: for MIC: Bacillus altitudinis.
Experiment [3] relates to DB00376. In words: Antibiotic MIC tests. In kind it is cell-based.
For experiment [4], the system named is DB05646. In words: Antibiotic MIC tests. The conditions noted are these: for MIC: Alcaligenes faecalis. In kind it is cell-based, Alcaligenes faecalis.
The subject of experiment [5] is E. coli ATCC 25922. The conditions noted are these: MIC; cited from earlier work.
[6] abbreviates: 48 h, read-out: MIC, DB02473 48 hr.
Setting [7] is: 24 h, read-out: MIC, DB10033 24 hr.
The mark [8] stands for this setting: 48 h, read-out: MIC, DB10033 48 hr.
[9] abbreviates: 24 h, read-out: MIC, DB00376 24 hr.
Setting [10] is: 48 h, read-out: MIC, DB00376 48 hr.
Setting [11] is: 24 h, read-out: MIC, DB05646 24 hr.
Where [12] appears, read: 48 h, read-out: MIC, DB05646 48 hr.
Where [13] appears, read: 24 h, read-out: MIC, DB02473 24 hr.

Converted amounts (≈) assume the structure as drawn. Where two headings read alike, the source gives them in different places.

In general, MIC refers to the least concentration at which growth counts as inhibited.

With `CC[C@H]1OC(=O)[C@H](C)[C@@H](O[C@H]2C[C@@](C)(OC)[C@@H](O)[C@H](C)O2)[C@H](C)[C@@H](O[C@@H]2O[C@H](C)C[C@H](N(C)C)[C@H]2O)[C@](C)(O)C[C@@H](C)C(=O)[C@H](C)[C@@H](O)[C@]1(C)O` [Erythromycin], the minimum inhibitory concentration (MIC) in experiment [1] (setting [6]) was 0.125 µg/mL (≈ 0.17 µM); in experiment [2] (setting [7]), at most 0.06 µg/mL; in experiment [2] (setting [8]) it was at most 0.06 µg/mL; in experiment [3] (setting [9]) it was 0.125 µg/mL (≈ 0.17 µM); in experiment [3] (setting [10]) it was 0.5 µg/mL (≈ 0.681 µM); in experiment [4] (setting [11]), 16 µg/mL (≈ 21.8 µM). The minimal inhibitory concentration (MIC) in experiment [4] (setting [12]) was found to be 64 µg/mL (≈ 87.2 µM).

In the case of `C[C@H]1COc2c(N3CCN(C)CC3)c(F)cc3c(=O)c(C(=O)O)cn1c23` [Levofloxacin], the MIC is at most 0.06 µg/mL in experiment [1] (setting [13]); at most 0.06 µg/mL in experiment [2] (setting [7]); 0.125 µg/mL (≈ 0.346 µM) in experiment [2] (setting [8]); at most 0.06 µg/mL in experiment [3] (setting [9]); 0.125 µg/mL (≈ 0.346 µM) in experiment [3] (setting [10]); 1 µg/mL (≈ 2.77 µM) in experiment [4] (setting [11]). Further, in experiment [4] (setting [12]), the MIC came out at 1 µg/mL (≈ 2.77 µM).

Turning to `C[C@@H](O)[C@H]1C(=O)N2C(C(=O)O)=C(S[C@@H]3CN[C@H](C(=O)N(C)C)C3)[C@H](C)[C@H]12` [Meropenem], the minimum inhibitory concentration (MIC) is at most 0.06 µg/mL in experiment [1] (setting [13]); at most 0.06 µg/mL in experiment [1] (setting [6]); at most 0.06 µg/mL in experiment [2] (setting [7]); 0.125 µg/mL (≈ 0.326 µM) in experiment [2] (setting [8]); at most 0.06 µg/mL in experiment [3] (setting [9]); at most 0.06 µg/mL in experiment [3] (setting [10]). In addition, the MIC in experiment [4] (setting [11]) and in experiment [4] (setting [12]) was at most 0.06 µg/mL each time. Also, the “E. coli ATCC 25922 CLSI QC Range” value in experiment [5] is 0.008 to 0.06 µg/mL.

As for `CN(C)c1ccc(O)c2c1C[C@H]1C[C@H]3[C@H](N(C)C)C(O)=C(C(N)=O)C(=O)[C@@]3(O)C(O)=C1C2=O` [Minocycline], the minimum inhibitory concentration (MIC) in experiment [1] (setting [13]) was 0.125 µg/mL (≈ 0.273 µM); in experiment [1] (setting [6]), 0.5 µg/mL (≈ 1.09 µM); in experiment [2] (setting [7]) it was 2 µg/mL (≈ 4.37 µM); in experiment [2] (setting [8]) it was 2 µg/mL (≈ 4.37 µM); in experiment [3] (setting [9]) it was 0.0625 µg/mL (≈ 0.137 µM); in experiment [3] (setting [10]) it was 0.25 µg/mL (≈ 0.546 µM). In addition, the figures for the MIC in experiment [4] (setting [11]) and in experiment [4] (setting [12]) were 2 µg/mL (≈ 4.37 µM) and 4 µg/mL (≈ 8.74 µM), respectively.

Regarding `C/C(=C\C(=O)OCCCCCCCCC(=O)O)C[C@@H]1OC[C@H](C[C@@H]2O[C@H]2[C@@H](C)[C@H](C)O)[C@@H](O)[C@H]1O` [Mupirocin], the MIC in experiment [1] (setting [13]) was at most 1 µg/mL; in experiment [1] (setting [6]), at most 1 µg/mL; in experiment [2] (setting [7]), 8 µg/mL (≈ 16 µM); in experiment [2] (setting [8]), 64 µg/mL (≈ 128 µM); in experiment [3] (setting [9]), 2 µg/mL (≈ 3.99 µM); in experiment [3] (setting [10]), 16 µg/mL (≈ 32 µM). The figures for the minimal inhibitory concentration (MIC) in experiment [4] (setting [11]) and in experiment [4] (setting [12]) were 64 µg/mL (≈ 128 µM) and 128 µg/mL (≈ 256 µM), respectively.

Consider `CN(C)[C@@H]1C(O)=C(C(N)=O)C(=O)[C@@]2(O)C(O)=C3C(=O)c4c(O)cccc4[C@@](C)(O)[C@H]3C[C@@H]12` [Tetracycline], for which the figures for the minimal inhibitory concentration (MIC) in experiment [3] (setting [9]), in experiment [4] (setting [11]) and in experiment [4] (setting [12]) were 0.0625 µg/mL (≈ 0.141 µM), 4 µg/mL (≈ 9 µM) and 16 µg/mL (≈ 36 µM), respectively.

Amoxicillin/Clavulanate (4:1): in experiment [1], the “MIC, DB02473 24 hr” value was at most 0.06 µg/mL and the “MIC, DB02473 48 hr” value was at most 0.06 µg/mL. Also, in experiment [2], the “MIC, DB10033 24 hr” value is at most 0.06 µg/mL and the “MIC, DB10033 48 hr” value was at most 0.06 µg/mL. For the same molecule, in experiment [3], the “MIC, DB00376 24 hr” value was at most 0.06 µg/mL and the “MIC, DB00376 48 hr” value was at most 0.06 µg/mL. In experiment [4], the “MIC, DB05646 24 hr” value worked out at 32 µg/mL and the “MIC, DB05646 48 hr” value was 32 µg/mL.

Regarding Neomycin, in experiment [1], the “MIC, DB02473 24 hr” value was at most 0.06 µg/mL and the “MIC, DB02473 48 hr” value was found to be 0.25 µg/mL. For the same molecule, in experiment [2], the “MIC, DB10033 24 hr” value is 0.125 µg/mL and the “MIC, DB10033 48 hr” value came out at 0.125 µg/mL. In addition, in experiment [3], the “MIC, DB00376 24 hr” value was 0.125 µg/mL and the “MIC, DB00376 48 hr” value was determined as 0.25 µg/mL. In addition, in experiment [4], the “MIC, DB05646 24 hr” value was determined as 8 µg/mL and the “MIC, DB05646 48 hr” value was determined as 16 µg/mL.

As for Polymyxin B, in experiment [1], the “MIC, DB02473 24 hr” value is 4 µg/mL and the “MIC, DB02473 48 hr” value came to 8 µg/mL. Moreover, in experiment [2], the “MIC, DB10033 24 hr” value was found to be 8 µg/mL and the “MIC, DB10033 48 hr” value was 16 µg/mL. In experiment [3], the “MIC, DB00376 24 hr” value turned out to be 8 µg/mL and the “MIC, DB00376 48 hr” value amounted to 16 µg/mL. Moreover, in experiment [4], the “MIC, DB05646 24 hr” value turned out to be 1 µg/mL and the “MIC, DB05646 48 hr” value is 1 µg/mL. In addition, in experiment [5], the “E. coli ATCC 25922 CLSI QC Range” value is 0.25 to 2 µg/mL.

As for Povidone-iodine, in experiment [1], the “MIC, DB02473 24 hr” value is over 1024 µg/mL and the “MIC, DB02473 48 hr” value was over 1024 µg/mL. In experiment [2], the “MIC, DB10033 24 hr” value was over 1024 µg/mL and the “MIC, DB10033 48 hr” value is over 1024 µg/mL. Also, in experiment [3], the “MIC, DB00376 24 hr” value is over 1024 µg/mL and the “MIC, DB00376 48 hr” value is over 1024 µg/mL. Besides, in experiment [4], the “MIC, DB05646 24 hr” value was over 1024 µg/mL and the “MIC, DB05646 48 hr” value is over 1024 µg/mL.

(Values after US12708649B2, “Compositions and methods for improving skin health and for the treatment and prevention of diseases, disorders and conditions associated with fungi and other pathogenic microbes” (priority 2020, dated 2026).)
